Assay results from patent publication US20110318424A1, “METHODS FOR PROLONGING VIABILITY OF CONE CELLS USING MODULATORS OF THE MAMMALIAN TARGET OF RAPAMYCINE (mTOR)” (PRESIDENT AND FELLOWS OF HARVARD COLLEGE, priority 2008, published 2011).
Entries after “also recorded” stand apart in the source; their conditions may differ.

Legend:
cones of PDE-β−/− mice = assay: Cone survival in PDE-β−/− mice after systemic insulin or streptozotocin treatment (lacZ staining of retinal flat mounts); type: in vivo, mouse; conditions: for cone survival: 4 weeks of treatment from PW3, read at PW7, versus uninjected control; for cone survival after prolonged treatment: 7 weeks of treatment from PW3, read at PW10, versus untreated
Method: (§1) Rapamycin, Streptozotocin and Insulin treatments were performed as follows. Rapamycin was diluted to 10 mg/ml in ethanol. The stock was diluted to 0.015 mg/ml in drinking water over a period of 2 weeks. A single intraperitoneal injection of 150 μl (12 mg/ml in 0.1M citric acid, ph4.5) of Streptozotocin was injected at postnatal day (P) 21. Insulin was injected intraperitoneally daily starting at P21. The concentration was increased weekly such that the first week, 10 U/kg body weight, the second 15 U/kg, the third 20 U/kg and fourth 30 U/kg body weight, were injected. In the treatment that lasted 7 weeks 30 U/kg body weight were injected for the remaining 3 weeks. Blood glucose levels were measured by collecting a drop of blood from the tail directly onto a test strip from TrueTrack smart system (CVS pharmacy). Eye bleeds were avoided due to the fact that cell survival in the retina was being assayed.
Quantification of cone survival was performed as follows. The colors of the bright light image were inverted and processed with Imaris software (Bitplane Inc) to calculate the percentage of blue surface area versus the total retinal surface area (see also FIG. 17). A minimum of 8 retinae per treatment, and for the control, were analyzed. P-values were calculated by the student's t-test.

p*-mTOR in dorsal cones = assay: Retinal explant culture of wild type mice, p*-mTOR immunofluorescence; type: cell-based, mouse; conditions: wild type retinal explants, 4 hours, absence of glucose, leucine added at 200 μM
Method: Retinal explant cultures: The retina was dissected free from other ocular tissues in DMEM, and then incubated in conditions according to the chart in FIG. 10a. Regular DMEM was at 4.5 g/L glucose, low glucose was at 1 g/L, leucine was added at 200 μM and FCS at 10%. Incubation was performed for 4 h and the retinae were fixed and processed for antibody staining as described below.
(§2) Whole mount and section antibody staining were performed as previously (Punzo, C. & Cepko, C. L. (2008) Dev Dyn 237, 1034-42) described with the following modifications. Antibody staining for LAMP-2: Triton was replaced with 0.01% Saponin. Antibody staining for p*-mTOR and p*-S6: PBS was replaced by TBS in every step of the procedure. […] Time points analyzed for the rod and cone death kinetics (P: postnatal day; PW: postnatal week): PDE-β−/−: P10-P20 daily, PW3-10 weekly, PW 12, PW15, PW18, PW45; PDE-γ-KO: P10-P20 daily, PW3-PW10 weekly, PW15, PW25, PW45; Rho-KO: PW4-PW8 weekly, PW10, PW11, PW17, PW20, PW25, PW27, PW31, PW34, PW37, PW45, PW55, PW80; P23H: PW5, PW10, PW16, PW25, PW30, PW35, PW40, PW65, PW70, PW75, PW80, PW85.

HIF-1α = HIF-1α immunofluorescence on retinal flat mounts of treated PDE-β−/− mice; type: in vivo, mouse; conditions: PDE-β−/− mice treated for 4 weeks
Method: as §1, with “Eye bleeds were avoided due to the fact that cell survival in the retina was being assayed.” left out
as §2, with “modifications.” for “modifications. Antibody staining for LAMP-2: Triton was replaced with 0.01% Saponin. Antibody staining for p*-mTOR and p*-S6: PBS was replaced by TBS in every step of the procedure.”

[1] = test system: photoreceptors (rods and cones) of rd10 mouse; conditions: cited from earlier work

CN(N=O)C(=O)N[C@H]1C(O)O[C@H](CO)[C@@H](O)[C@@H]1O (mixture of isomers) [streptozotocin]
cone survival (cones of PDE-β−/− mice): decrease in cone survival
cone survival after prolonged treatment (cones of PDE-β−/− mice): no significant difference in cone survival

CC(C)C[C@H](N)C(=O)O [leucine]
dorsal p*-mTOR with increased leucine (p*-mTOR in dorsal cones): abolished

insulin
cone survival (cones of PDE-β−/− mice): improved cone survival; also recorded: prolonged cone survival
cone survival after prolonged treatment (cones of PDE-β−/− mice): did not show any significant improvement of cone survival; also recorded: no significant difference in cone survival
upregulation of HIF-1α in cones (HIF-1α): did not show the upregulation of HIF-1α; also recorded: prevented the upregulation of HIF-1α

proinsulin
hyperglycemia ([1]; mice treated with proinsulin): did not develop hyperglycemia
photoreceptor death ([1]; rd10 mouse, constitutive expression, rods and cones): delays photoreceptor death
